Data: patent publication US6506774B1, “Use of orexin receptor antagonists” (SmithKline Beecham p.l.c., priority 1999, dated 2003)

Tests used:
rats = experiment: Rat sleep/EEG studies; assay type: in vivo; conditions: central administration at the onset of the normal sleep period
Excerpt: Therefore antagonists of its receptor may be useful in the treatment of sleep disorders including insomnia.

freely-feeding rats = conditions: central administration, 4 hour time period; cited from earlier work

In the case of “orexin-A: peptide ligand (agonist) of the orexin-1 receptor; amino acid sequence given in the 1st table (QPLPDCCRQKTCSCRLYELLHGAGNHAAGILTL; Orexin-A; UniProt O43612 34-66, looked up)”, the arousal (rats) is given as “dose-related increase in arousal”, the “paradoxical sleep and slow wave sleep 2” value (rats) is given as “reduction in paradoxical sleep and slow wave sleep 2” and the “increase in food intake over control rats receiving vehicle” value (freely-feeding rats) is given as “approximately four-fold”.
